The values below are quoted from earlier work in US7115565B2, “Chemotherapeutic microemulsion compositions of paclitaxel with improved oral bioavailability” (Pharmacia & Upjohn Company, priority 2001, dated 2006).

The conditions of the data set: reported in the background.

Take `CC(=O)O[C@H]1C(=O)[C@@]2(C)[C@H]([C@H](OC(=O)c3ccccc3)[C@]3(O)C[C@H](OC(=O)[C@H](O)[C@@H](NC(=O)c4ccccc4)c4ccccc4)C(C)=C1C3(C)C)[C@]1(OC(C)=O)CO[C@@H]1C[C@@H]2O` [Paclitaxel]: the oral bioavailability entry is reported as “very low”.
